18 compounds from PubChem BioAssay AID292 (DTP/NCI, 2004) can be followed below.

In this assay the test system is B6C3F1 mice, ip Sarcoma M5076, median survival T/C. The assay can be described thus: NCI In Vivo Anticancer Drug Screen. Data for tumor model Sarcoma M5076 (intraperitoneal) in B6C3F1 mice. Particulars: endpoint: median survival time, schedule: Q04DX004 (ip), higher = longer survival. In a few lines: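 Mice carrying the transplanted tumour received compound treatment. Survival was recorded, and each value is the treated-group measurement divided by that of the vehicle-dosed control group.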

[1] abbreviates: dose: 25.0 mg/kg/injection, vehicle: Klucel (hydroxypropylcellulose) (HPC).
[2] abbreviates: dose: 50.0 mg/kg/injection, vehicle: Klucel (hydroxypropylcellulose) (HPC).
[3] abbreviates: dose: 100.0 mg/kg/injection, vehicle: Klucel (hydroxypropylcellulose) (HPC).
[4] abbreviates: dose: 200.0 mg/kg/injection, vehicle: Klucel (hydroxypropylcellulose) (HPC).
The mark [5] stands for this setting: dose: 400.0 mg/kg/injection, vehicle: Klucel (hydroxypropylcellulose) (HPC).
Where [6] appears, read: dose: 800.0 mg/kg/injection, vehicle: Klucel (hydroxypropylcellulose) (HPC).
Setting [7] is: dose: 25.0 mg/kg/injection, vehicle: saline with Tween-80.
Setting [8] is: dose: 50.0 mg/kg/injection, vehicle: saline with Tween-80.
The mark [9] stands for this setting: dose: 100.0 mg/kg/injection, vehicle: saline with Tween-80.
Where [10] appears, read: dose: 200.0 mg/kg/injection, vehicle: saline with Tween-80.
Setting [11] is: dose: 400.0 mg/kg/injection, vehicle: saline with Tween-80.

Several values for one entry are separate records, joined by “and”; a condition that tells them apart may be missing. Equal entries are not always repeated. Toxic doses and inconclusive results are not listed.

For `CC1[C@@H]2CC=C3[C@H]4CCC5Cc6nc7c(nc6C[C@@]5(C)C4CC(=O)[C@]32CO[C@]12OC(C)(C)CC2O)CC1CC[C@@H]2C3=C[C@H]4O[C@@]5(O[C@@](C)(CO)C[C@@H]5O)C(C)[C@@]4(O)[C@]3(C)[C@@H](O)CC2[C@]1(C)C7` (stereo partly specified), the T/C reads like this: (dose: 12.5 micrograms/kg/injection, vehicle: saline + alcohol) 98 % of control; (dose: 25.0 micrograms/kg/injection, vehicle: saline + alcohol) 94 % of control; (dose: 50.0 micrograms/kg/injection, vehicle: saline + alcohol) 102 % of control; (dose: 100.0 micrograms/kg/injection, vehicle: saline + alcohol) 103 % of control and 107 % of control; (dose: 200.0 micrograms/kg/injection, vehicle: saline + alcohol) 114 % of control.
`NC1=NCc2c(sc3c2CCCC3)N1`: the T/C is 94 % of control (dose: 12.5 mg/kg/injection, vehicle: Klucel (hydroxypropylcellulose) (HPC)); 94 % of control under setting [1]; 96 % of control under setting [2]; 93 % of control under setting [3].
`NC(CCC(=O)NC(CS)C(=O)NCC(=O)O)C(=O)O` (stereo unspecified): the T/C is, setting by setting: (dose: 75.0 mg/kg/injection, vehicle: saline) 110 % of control; (dose: 150.0 mg/kg/injection, vehicle: saline) 100 % of control; (dose: 300.0 mg/kg/injection, vehicle: saline) 102 % of control; (dose: 600.0 mg/kg/injection, vehicle: saline) 90 % of control; (dose: 1200.0 mg/kg/injection, vehicle: saline) 90 % of control.
With `Cc1c2ccccc2c(C)c2c1cc(C(=O)O)c1ccccc12`, the T/C (dose: 12.5 mg/kg/injection, vehicle: sodium bicarbonate) is 113 % of control; the T/C (dose: 25.0 mg/kg/injection, vehicle: sodium bicarbonate) is 113 % of control; the T/C (dose: 50.0 mg/kg/injection, vehicle: sodium bicarbonate) was 113 % of control; the T/C (dose: 200.0 mg/kg/injection, vehicle: sodium bicarbonate) was 124 % of control.
Consider `Cc1ccc(Nc2nnc(CSc3ccc(Cl)cc3)s2)c(S(=O)(=O)O)c1`, for which the T/C is, setting by setting: (dose: 37.5 mg/kg/injection, vehicle: saline with Tween-80) 99 % of control; (dose: 75.0 mg/kg/injection, vehicle: saline with Tween-80) 87 % of control; (dose: 150.0 mg/kg/injection, vehicle: saline with Tween-80) 91 % of control.
With `CCCCNc1ccc2nnc(C)n2n1`, the T/C (dose: 25.0 mg/kg/injection, vehicle: DMSO) was 99 % of control; the T/C (dose: 50.0 mg/kg/injection, vehicle: DMSO) was 92 % of control and 100 % of control; the T/C (dose: 100.0 mg/kg/injection, vehicle: DMSO) is 94 % of control and 96 % of control; the T/C (dose: 200.0 mg/kg/injection, vehicle: DMSO) is 92 % of control and 101 % of control.
Consider `CCC1C(C#N)C(=O)NC(=O)C1C#N` (stereo unspecified), for which the T/C under setting [2] is 104 % of control; the T/C under setting [3] is 106 % of control; the T/C under setting [4] is 107 % of control; the T/C under setting [5] is 104 % of control; the T/C under setting [6] was 110 % of control.
On to `CCCC1(c2ccccc2)C(=O)NCNC1=O`, for which the T/C is 99 % of control under setting [2]; 95 % of control under setting [3]; 88 % of control under setting [4]; 88 % of control under setting [5]; 88 % of control under setting [6].
Regarding `Cc1ccc(C)c(NC(=O)C2C(=O)C(=O)N(c3cc(C)ccc3C)C2=O)c1` (stereo unspecified), the T/C runs as follows: under setting [2], 102 % of control; under setting [3], 100 % of control; under setting [4], 108 % of control; under setting [5], 105 % of control.
Consider `O=c1c(O)c(O)c1=O.[NH2-].[NH2-].[NH2-].[NH2-].[NH2-].[Ru+5]`, for which the T/C is 98 % of control (dose: 6.25 mg/kg/injection, vehicle: suspension in saline); 97 % of control (dose: 12.5 mg/kg/injection, vehicle: suspension in saline); 98 % of control (dose: 25.0 mg/kg/injection, vehicle: suspension in saline).
In the case of `COc1cc2c(c3c1/c(=N/N(C)C)c1ccccc1n3C)C=CC(C)(C)O2`, the T/C reads like this: under setting [7], 110 % of control; under setting [8], 105 % of control; under setting [9], 110 % of control; under setting [10], 110 % of control.
In the case of `CCOC(=O)/C=C/C(=O)N1CCN(C(=O)/C=C/C(=O)OCC)C(C)C1` (stereo unspecified), the T/C is 98 % of control under setting [1]; 107 % of control under setting [2]; 98 % of control under setting [3]; 108 % of control under setting [4]; 100 % of control under setting [5].
For `COC1=CCC23C(=O)C=CC(=O)C2(C1)C(=O)c1ccccc1C3=O` (stereo unspecified), the T/C was 110 % of control (dose: 1.5 mg/kg/injection, vehicle: saline with Tween-80); 95 % of control (dose: 3.0 mg/kg/injection, vehicle: saline with Tween-80); 94 % of control (dose: 6.0 mg/kg/injection, vehicle: saline with Tween-80); 98 % of control (dose: 12.0 mg/kg/injection, vehicle: saline with Tween-80); 108 % of control (dose: 24.0 mg/kg/injection, vehicle: saline with Tween-80).
Turning to `Cn1nnc2c(C(N)=O)ncn2c1=O`, the T/C runs as follows: (dose: 100.0 mg/kg/injection, vehicle: saline) 156 % of control; (dose: 200.0 mg/kg/injection, vehicle: saline) 170 % of control.
For `CCOC(=O)CNCc1cc(=O)[nH]c2cc(Cl)ccc12`, the T/C is, setting by setting: under setting [7], 99 % of control; under setting [8], 99 % of control; under setting [9], 101 % of control; under setting [10], 99 % of control; under setting [11], 94 % of control.
On to `Cc1cc(C)cc(N(C2=NCCS2)C2=NCCS2)c1`, for which the T/C is, setting by setting: under setting [2], 100 % of control; under setting [3], 96 % of control; under setting [4], 92 % of control; under setting [5], 99 % of control.
Take `CN(C)N=Nc1ccc(C(N)=O)cc1`: the T/C is 120 % of control and 121 % of control under setting [7]; 151 % of control under setting [9]; 163 % of control under setting [10]; 109 % of control under setting [11].
`CC(C)(C)c1cc(C2C(C#N)C(=O)NC(=O)C2C#N)cc(C(C)(C)C)c1O` (stereo unspecified): the T/C reads like this: under setting [2], 88 % of control; under setting [3], 97 % of control; under setting [4], 93 % of control; under setting [5], 95 % of control; under setting [6], 97 % of control.
